Columns and labels:
[1] = test system: KB; assay: Antitumor activity against human KB cells by WST-1 assay; format: functional, cell-based
[2] = test system: HepG2; assay: Antitumor activity against human HepG2 cells by WST-1 assay; format: functional, cell-based
[3] = Antitumor activity against mouse C26 cells by WST-1 assay; format: functional, cell-based
[4] = Ratio of compound IC50 to 10-hydroxycamptothecin IC50 for mouse C26 cells; format: functional

| Structure (SMILES) | IC50 [1] [nM] | IC50 [2] [nM] | IC50 [3] [nM] | Ratio IC50 [4] |
| --- | --- | --- | --- | --- |
| CCOCc1c(O)ccc2nc3c(cc12)Cn1c-3cc2c(c1=O)COC(=O)[C@]2(O)CC | 19700 | 3910 | 29100 |  |
| CC[C@@]1(O)C(=O)OCc2c1cc1n(c2=O)Cc2cc3c(COC(C)=O)c(OC(C)=O)ccc3nc2-1 | 794 | 1000 | 157 | 3 |
| CC[C@@]1(O)C(=O)OCc2c1cc1n(c2=O)Cc2cc3c(COC)c(O)ccc3nc2-1 | 25400 | 92100 | 101000 |  |
| CC[C@@]1(O)C(=O)OCc2c1cc1n(c2=O)Cc2cc3c(COC(C)C)c(O)ccc3nc2-1 | 7250 | 13500 | 3880 |  |
| CC[C@@]1(O)C(=O)OCc2c1cc1n(c2=O)Cc2cc3c(COC(C)(C)C)c(O)ccc3nc2-1 | 1380 | 802 | 273 |  |
| CC[C@@]1(OC(C)=O)C(=O)OCc2c1cc1n(c2=O)Cc2cc3c(COC(C)=O)c(OC(C)=O)ccc3nc2-1 | 1150 | 1310 | 424 |  |
| CC[C@@]1(O)C(=O)OCc2c1cc1n(c2=O)Cc2cc3cc(O)ccc3nc2-1 [HYDROXYCAMPTOTHECIN] | 829 | 981 | 496 |  |
